This passage reports IC50 results from patent publication US12692230B2, “(1 h-indol-5-yl)acrylamide derivatives as inhibitors of TEAD proteins and the hippo-YAP1/TAZ signaling cascade for the treatment of cancer” (Sanofi, priority 2020, dated 2026).

The test system of the experiment is TEAD responsive promoter element (8XGTIIC-Luciferase; YAP1-TEAD and TAZ-TEAD activity). The experiment is described as follows: TEAD-Luciferase reporter assay. The conditions noted are these: Homo sapiens; luciferase activity in tumor cell lines with stable integration of the 8XGTIIC-Luciferase construct; 10 doses between 1 and 10000 nM, 48 hrs. Type of experiment: cell-based. From the text:
TEAD-Luciferase Reporter Assay
Luciferase-based gene reporter assays were used, employing the TEAD responsive promoter element that are stably integrated to different human tumor cell lines in order to monitor YAP1-TEAD and TAZ-TEAD activity and to study YAP1/TAZ-TEAD activity modulation by small molecule compounds. Luciferase-based gene reporter assays employing the GAPDH promoter element and stably integrated to different human tumor cell lines are used as counter screen control cell lines.
Tumor cell lines with stable integration of the 8XGTIIC-Luciferase construct (Dupont et al., Nature 2011) or the GAPDH-Luciferase control plasmid, are seeded in culture medium in 96-well plates at a density of 8000 cells/well. Following an overnight incubation in a 37° C., 5% CO2 growth chamber, cells are treated with compounds described above at 10 doses ranging between 1 and 10000 nM for 48 hrs. After compound incubation, cells are lysed with Bright-Glo Luciferase Assay System (Promega E2620) and luciferase activity is measured using a luminescent plate reader.
The inhibitory activity of the compounds with respect to luciferase activity is given by the concentration which inhibits 50% of activity of non-treated cells. IC50s are determined with a nonlinear regression model on XLfit software analysis (IDBS, UK).
In turn, `C=CC(=O)Nc1ccc2c(ccn2Cc2cccc(C(F)(F)F)c2)c1` [Example 1, N-(1-(3-(trifluoromethyl)benzyl)-1H-indol-5-yl)acrylamide] displayed an IC50 of 24 nM.

With `C=CC(=O)N(C)c1ccc2c(ccn2Cc2cccc(C(F)(F)F)c2)c1` [Example 2, N-methyl-N-(1-(3-(trifluoromethyl)benzyl)-1H-indol-5-yl)acrylamide], the IC50 came out at 1090 nM.

`C=CC(=O)Nc1ccc2c(ccn2CCCCC(F)(F)F)c1` [Example 3, N-(1-(5,5,5-trifluoropentyl)-1H-indol-5-yl)acrylamide]: inhibition was half-maximal at 25 nM (IC50).

Turning to `C=CC(=O)Nc1ccc2c(ccn2C(C)c2cccc(C(F)(F)F)c2)c1` (stereo not drawn) [Example 4, N-(1-(1-(3-(trifluoromethyl)phenyl)ethyl)-1H-indol-5-yl)acrylamide], half-maximal inhibition (IC50) was put at 558 nM.

In turn, `C=CC(=O)Nc1ccc2c(ccn2Cc2cccc(S(F)(F)(F)(F)F)c2)c1` [Example 5, N-(1-(3-(pentafluoro-λ6-sulfanyl)benzyl)-1H-indol-5-yl)acrylamide] displayed an IC50 of 61 nM.

`C=CC(=O)Nc1ccc2c(ccn2Cc2ccc(S(F)(F)(F)(F)F)cc2)c1` [Example 6, N-(1-(4-(pentafluoro-λ6-sulfanyl)benzyl)-1H-indol-5-yl)acrylamide]: the IC50 turned out to be 4040 nM.

`C=CC(=O)Nc1ccc2c(ccn2Cc2ccc(OC(F)(F)F)cc2)c1` [Example 7, N-(1-(4-(trifluoromethoxy)benzyl)-1H-indol-5-yl)acrylamide]: the IC50 was ≥ 10000 nM.

The compound `C=CC(=O)Nc1ccc2c(ccn2Cc2cccc(OC(F)(F)F)c2)c1` [Example 8, N-(1-(3-(trifluoromethoxy)benzyl)-1H-indol-5-yl)acrylamide] gave an IC50 of 296 nM.

The compound `C=CC(=O)Nc1ccc2c(ccn2Cc2cccc(I)c2)c1` [Example 9, N-(1-(3-iodobenzyl)-1H-indol-5-yl)acrylamide] showed an IC50 of 143 nM.

On to `C=CC(=O)Nc1ccc2c(ccn2Cc2cc(C(F)(F)F)ccc2F)c1` [Example 10, N-(1-(2-fluoro-5-(trifluoromethyl)benzyl)-1H-indol-5-yl)acrylamide], for which 7220 nM corresponded to half-maximal inhibition (IC50).

As to `C=CC(=O)Nc1ccc2c(c1)c(C)cn2Cc1cccc(C(F)(F)F)c1` [Example 11, N-(3-methyl-1-(3-(trifluoromethyl)benzyl)-1H-indol-5-yl)acrylamide], the IC50 came to 30 nM.

Compound `C=CC(=O)Nc1ccc2c(ccn2Cc2cccc(OC)c2)c1` [Example 12, N-(1-(3-methoxybenzyl)-1H-indol-5-yl)acrylamide] displayed an IC50 of 241 nM.

Compound `C=CC(=O)Nc1ccc2c(c1)cc(C)n2Cc1cccc(C(F)(F)F)c1` [Example 13, N-(2-methyl-1-(3-(trifluoromethyl)benzyl)-1H-indol-5-yl)acrylamide] yielded an IC50 of 63 nM.

In the case of `C=CC(=O)Nc1ccc2c(c1)c(C#N)cn2Cc1cccc(C(F)(F)F)c1` [Example 14, N-(3-cyano-1-(3-(trifluoromethyl)benzyl)-1H-indol-5-yl)acrylamide], inhibition was half-maximal at 236 nM (IC50).

In turn, `C=CC(=O)Nc1ccc2c(ccn2Cc2cccc(C3CC3)c2)c1` [Example 15, N-(1-(3-cyclopropylbenzyl)-1H-indol-5-yl)acrylamide] had an IC50 of 496 nM.

Regarding `C=CC(=O)Nc1ccc2c(c1)c(C)c(C)n2Cc1cccc(C(F)(F)F)c1` [Example 16, N-(2,3-dimethyl-1-(3-(trifluoromethyl)benzyl)-1H-indol-5-yl)acrylamide], the half-maximal inhibitory concentration (IC50) turned out to be 31 nM.

`C=CC(=O)Nc1ccc2c(ccn2Cc2cccc(C)c2)c1` [Example 17, N-(1-(3-methylbenzyl)-1H-indol-5-yl)acrylamide] had an IC50 of 54 nM.

As to `C=CC(=O)Nc1ccc2c(ccn2Cc2ccccc2)c1` [Example 18, N-(1-Benzyl-1H-indol-5-yl)-acrylamide], the half-maximal inhibitory concentration (IC50) was found to be 963 nM.

In the case of `C=CC(=O)Nc1cccc2c1ccn2Cc1cccc(C(F)(F)F)c1` [Example 19, N-(1-(3-(trifluoromethyl)benzyl)-1H-indol-4-yl)acrylamide], the IC50 is 195 nM.

The compound `CN(C)C/C=C/C(=O)Nc1cccc2c1ccn2Cc1cccc(C(F)(F)F)c1` [Example 20, (E)-4-(dimethylamino)-N-(1-(3-(trifluoromethyl)benzyl)-1H-indol-4-yl)but-2-enamide] registered an IC50 of 7760 nM.

In turn, `C=CC(=O)Nc1ccc2ccn(Cc3cccc(C(F)(F)F)c3)c2c1` [Example 21, N-(1-(3-(trifluoromethyl)benzyl)-1H-indol-6-yl)acrylamide] came in with an IC50 of 35 nM.

`C=CC(=O)Nc1ccc2c(ccn2CC2CCC(F)(F)CC2)c1` [Example 22, N-(1-((4,4-difluorocyclohexyl)methyl)-1H-indol-5-yl)acrylamide] gave an IC50 of 1400 nM.

On to `C=CC(=O)Nc1ccc2c(ccn2CC2CCOCC2)c1` [Example 23, N-(1-((tetrahydro-2H-pyran-4-yl)methyl)-1H-indol-5-yl)acrylamide], for which the IC50 was 369 nM.

`C=CC(=O)Nc1ccc2c(ccn2CC2CCC(C(F)(F)F)CC2)c1` (stereo not drawn) [Example 24, N-(1-((4-(trifluoromethyl)cyclohexyl)methyl)-1H-indol-5-yl)acrylamide] had an IC50 of 1000 nM.

As to `C=CC(=O)Nc1ccc2c(ccn2CC2CC3(C2)CC3(F)F)c1` (stereo not drawn) [Example 25, N-(1-((1,1-difluorospiro[2.3]hexan-5-yl)methyl)-1H-indol-5-yl)acrylamide], the IC50 was found to be 1000 nM.

Take `C=CC(=O)Nc1ccc2c(ccn2CC2CCC(F)C2)c1` (stereo not drawn) [Example 26, N-(1-((3-fluorocyclopentyl)methyl)-1H-indol-5-yl)acrylamide]: half-maximal inhibition (IC50) required 357 nM.

In the case of `C=CC(=O)Nc1ccc2c(ccn2CC2CCCCC2)c1` [Example 27, N-(1-(cyclohexylmethyl)-1H-indol-5-yl)acrylamide], the IC50 was ≥ 10000 nM.

Regarding `C=CC(=O)Nc1ccc2c(ccn2CC2CC(C(F)(F)F)C2)c1` (stereo not drawn) [Example 28, N-(1-((3-(trifluoromethyl)cyclobutyl)methyl)-1H-indol-5-yl)acrylamide], the IC50 was ≥ 10000 nM.

`C=CC(=O)Nc1ccc2c(ccn2CC2CCC(F)(F)C2)c1` (stereo not drawn) [Example 29, N-(1-((3,3-difluorocyclopentyl)methyl)-1H-indol-5-yl)acrylamide] displayed an IC50 of 43 nM.

As to `C=CC(=O)Nc1ccc2c(ccn2Cc2ccc(-c3ccccc3)cc2)c1` [Example 30, N-(1-([1,1′-biphenyl]-4-ylmethyl)-1H-indol-5-yl)acrylamide], the IC50 is ≥ 10000 nM.

`C=CC(=O)Nc1ccc2c(ccn2Cc2ccc(-c3cccc(C(F)(F)F)c3)cc2)c1` [Example 31, N-(1-((3′-(trifluoromethyl)-[1,1′-biphenyl]-4-yl)methyl)-1H-indol-5-yl)acrylamide]: the IC50 turned out to be 20 nM.

In turn, `C=CC(=O)Nc1ccc2c(ccn2Cc2ccc(-c3ccc(C(F)(F)F)cc3)cc2)c1` [Example 32, N-(1-((4′-(trifluoromethyl)-[1,1′-biphenyl]-4-yl)methyl)-1H-indol-5-yl)acrylamide] had an IC50 of 7840 nM.

Compound `C=CC(=O)Nc1ccc2c(ccn2[C@H]2CC[C@H](C(F)(F)F)CC2)c1` [Example 33, Trans-N-[1-[4-(trifluoromethyl)cyclohexyl]indol-5-yl]acrylamide] returned a 50% inhibitory concentration (IC50) of 41 nM.

For `C=CC(=O)Nc1ccc2c(ccn2[C@H]2CC[C@@H](C(F)(F)F)CC2)c1` [Example 34, Cis-N-[1-[4-(trifluoromethyl)cyclohexyl]indol-5-yl]acrylamide], the IC50 was ≥ 10000 nM.

`C=CC(=O)Nc1ccc2c(ccn2CC2CCN(c3ccc(C(F)(F)F)cc3)CC2)c1` [Example 35, N-(1-((1-(4-(trifluoromethyl)phenyl)piperidin-4-yl)methyl)-1H-indol-5-yl)acrylamide] registered a 50% inhibitory concentration (IC50) of 2330 nM.

In the case of `C=CC(=O)Nc1ccc2c(ccn2CCN(C)CC(F)(F)F)c1` [Example 36, N-(1-(2-(methyl(2,2,2-trifluoroethyl)amino)ethyl)-1H-indol-5-yl)acrylamide], the IC50 stood at 4560 nM.

On to `C=CC(=O)Nc1ccc2c(ccn2CCOCC(F)(F)F)c1` [Example 37, N-(1-(2-(2,2,2-trifluoroethoxy)ethyl)-1H-indol-5-yl)acrylamide], for which the IC50 was > 10000 nM.

For `C=CC(=O)Nc1ccc2c(ccn2C2CCN(CC(F)(F)F)CC2)c1` [Example 38, N-(1-(1-(2,2,2-trifluoroethyl)piperidin-4-yl)-1H-indol-5-yl)acrylamide], the IC50 was 1500 nM.

`C=CC(=O)Nc1ccc2c(ccn2C2CCC(F)(F)CC2)c1` [Example 39, N-(1-(4,4-difluorocyclohexyl)-1H-indol-5-yl)acrylamide]: 84 nM corresponded to half-maximal inhibition (IC50).

Regarding `C=CC(=O)Nc1ccc2c(ccn2C2CCN(c3ccc(C(F)(F)F)cc3)CC2)c1` [Example 40, N-(1-(1-(4-(trifluoromethyl)phenyl)piperidin-4-yl)-1H-indol-5-yl)acrylamide], the IC50 is ≥ 10000 nM.

With `C=CC(=O)Nc1ccc2c(ccn2CCCN2CCC(F)(F)C2)c1` [Example 41, N-(1-(3-(3,3-difluoropyrrolidin-1-yl)propyl)-1H-indol-5-yl)acrylamide], the IC50 was ≥ 10000 nM.

In turn, `C=CC(=O)Nc1ccc2c(ccn2Cc2ccc([Si](C)(C)C)cc2)c1` [Example 42, N-(1-(4-(trimethylsilyl)benzyl)-1H-indol-5-yl)acrylamide] yielded an IC50 of 211 nM.
